Series [1] concerns the target T1, WASp (Homo sapiens, UniProt P42768).
T1 construct: expressed in transfected cells; host or cells: 293T cells, calcium-phosphate transfection
T1 sequence (P42768 1-502): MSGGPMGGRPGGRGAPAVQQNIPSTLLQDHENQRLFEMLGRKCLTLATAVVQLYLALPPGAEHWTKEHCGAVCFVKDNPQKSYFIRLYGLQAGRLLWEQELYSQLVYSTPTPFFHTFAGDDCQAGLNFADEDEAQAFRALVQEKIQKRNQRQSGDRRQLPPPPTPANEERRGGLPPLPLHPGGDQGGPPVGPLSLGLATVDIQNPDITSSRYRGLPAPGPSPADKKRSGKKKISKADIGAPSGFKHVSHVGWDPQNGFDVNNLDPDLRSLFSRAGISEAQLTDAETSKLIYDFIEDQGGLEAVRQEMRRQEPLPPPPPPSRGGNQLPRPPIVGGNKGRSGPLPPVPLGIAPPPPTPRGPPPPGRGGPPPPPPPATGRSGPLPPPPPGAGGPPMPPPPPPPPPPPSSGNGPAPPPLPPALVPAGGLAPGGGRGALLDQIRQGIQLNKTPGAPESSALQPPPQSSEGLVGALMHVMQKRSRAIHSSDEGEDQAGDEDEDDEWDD
Briefly: YFP-WASp expression in 293T cells treated with compounds, densitometric Western blot analysis. The conditions noted are these: for effect on WASp expression in cells: 293T cells transfected with YFP-WASp; for Relative expression: YFP-WASp expression in transfected 293T cells relative to DMSO solvent control, compound 10-80 μM, overnight. The series is classed as cell-based. Here is the method: Compounds were obtained and from ChemBridge Corporation. San Diego, Calif., USA. Of the compounds obtained, 14 were considered potential agents for modulating WASp expression, by their potential to bind to WASp. The 14 compounds were tested in 293T cells using the following procedure.
The compounds were individually dissolved in DMSO to make a stock solution of 20 millimolar (mM) and kept stored at −20° C. 293T cells were prepared to mid log phase, ˜60-80% confluence, and were transfected with 15 μg of yellow-fluorescent protein, YFP-WASp plasmid (6023), using a Calcium-phosphate transfection protocol. Cells were collected and counted. 1-2×10^6 cells per sample in 6-well supplemented with 2-4 ml complete (10% FCS) DMEM medium (0.5×10^6 cells/ml). Cells were plated in 6 wells (0.5×10^6 cells/ml×Number of samples) and pre-incubate at 37°, 5% CO2 for at least 4 h (for the cells to adhere. 1 ml of the medium in which the cells were grown is taken, and added to the compound (10-80 μM). The medium, with the compound, was added back to the cells in the plate, drop-wise. Cells were incubated overnight at 37° C., 5% CO2. Densitometric analysis of YFP-WASp expression in the cells treated with the compounds, using Western blot analysis. The compounds with a relative 1.5-fold change (either increase or decrease) of expression relative cells which were exposed to DMSO solvent control, are listed in table 2 below. Table 2 lists the compounds' modulation of WASp expression levels as a function of relative expression of WASp in relation to control.

The test system of series [2] is WASp. Briefly: WASp gene silencing by siRNA in T cell leukemic cells, Western blot. It counts as cell-based. The protocol: As shown in the previous examples, WASp is overexpressed in malignant cells. Gene silencing of WASp expression using siRNA was tested. WASp was silenced using commercially available siRNA oligonucleotides. A mixture of the following oligonucleotides, each in the form of double-stranted siRNA duplex with its corresponding sequence at an amount of 500 pico-mole was introduced to 1×10^7 cells:
These experiments were performed in T cell leukemic cells. Silencing efficiency of about 90% was achieved 48 hours after transfection, when compared to non-specific (N.S) siRNA-treated cells.
A number of siRNA duplexes were tested in cells as in example 1E. The following double-stranded siRNA sequences were used: SEQ ID NO. 1 and its complementary sequence; SEQ ID NO. 2 and its complementary sequence; SEQ ID NO. 3 and its complementary sequence; SEQ ID NO. […] and its complementary sequence (designated as 1-4). 500 picomole of each double-stranded siRNA was used. In addition, a nonsense siRNA sequence (designated as “N.S. siRNA”) was used as a control. Control N.S. siRNA was made from 125 duplexes of each of the siRNA molecules in Table 5:
In addition, a mixture of the siRNAs comprising SEQ ID NOS. 1-4 (designated as “Mix”) was also used, comprising 125 picomole of each. Upon analysis with Western blot, it was shown that all siRNA duplexes were effective in downregulating WASp, with the siRNA of SEQ. ID NO.

Consider `COCC1CCN(c2ccc(C(=O)N3CCC(N4CCOCC4)CC3)cn2)C1` (centres unmarked) [Compound 4, 4-[1-({6-[3-(methoxymethyl)pyrrolidin-1-yl]pyridin-3-yl}carbonyl)piperi-din-4-yl]morpholine], for which, in series [1], the “effect on WASp expression in cells” value was “increase WASp expression” and the Relative expression is on record as 1.5. The corresponding values for `CC(=O)N[C@H]1C[C@@H](c2ccc3c(c2)nnn3C)O[C@@H](c2ccc(Cl)cc2)C1` [Compound 6, N-[(2R,4R,6S)-2-(4-chloro-phenyl)-6-(1-methyl-1H-1,2,3-benzotriazol-5-yl)tetrahydro-2H-pyran-4-yl]acetamide] are “increase WASp expression” and 6.7. The corresponding values for `Cc1cc(C)n(C2CCN(C(=O)c3cc(COc4ccccc4)[nH]n3)C2)n1` (centres unmarked) [Compound 7, 3,5-dimethyl-1-(1-{[5-(phenoxy-methyl)-1H-pyrazol-3-yl]carbonyl}pyrrolidin-3-yl)-1H-pyrazole] are “increase WASp expression” and 2.1. The corresponding values for `CC(C)c1n[nH]c2c1CN(C(=O)c1cccc(C#CC(C)(C)O)c1)CC2` [Compound 10, 4-{3-[(3-isopropyl-1,4,6,7-tetrahydro-5H-pyrazolo[4,3-c]pyridin-5-yl)carbonyl]phenyl}-2-methylbut-3-yn-2-ol] are “effective in decreasing WASp expression” and 0.6. Turning to `COc1ccc(CN2C(=O)N(CC(C)C)C3(CCN(C4Cc5ccccc5C4)CC3)C2=O)cc1` [Compound 13, 8-(2,3-dihydro-1H-inden-2-yl)-1-isobutyl-3-(4-methoxy-benzyl)-1,3,8-triazaspiro[4.5] decane-2,4-dione], in series [1], the “effect on WASp expression in cells” value is given as “effective in decreasing WASp expression” and the Relative expression is listed as 0.3. Turning to `COc1ccccc1-c1cccc(C(=O)NC(C)Cc2ccccn2)c1` (centres unmarked) [Compound 14, 2′-methoxy-N-(1-methyl-2-pyridin-2-ylethyl)biphenyl-3-carboxamide], in series [1], the “effect on WASp expression in cells” value is on record as “effective in decreasing WASp expression” and the Relative expression stood at 0.5.

B1: N.S. siRNA: nonsense siRNA control made from duplexes of SEQ ID NO. 9-12 (Table 5) (nucleic acid)
chain 1: UAGCGACUAAACACAUCAAUAGGCUAUGAAGAGAUAC
chain 2: AUGUAUUGGCCUGUAUUAG
chain 3: AUGAACGUGAAUUGCUCAA
chain 4: UGGUUUACAUGUCGACUAA
modifications: listed as RNA, chemistry not given here
B1: the “downregulating WASp” value in series [2] (Western blot, 500 picomole double-stranded siRNA, cells as in example 1E, FIG. 2) is “ineffective in downregulating WASp”.

B2: Mix: mixture of the double-stranded siRNA duplexes of SEQ ID NOS. 1-4 (nucleic acid)
chain 1: UGACUGAGUGGCUGAGUUA
chain 2: GACCUAGCCCAGCUGAUAA
chain 3: GAAUGGAUUUGACGUGAAC
chain 4: GCCGAGACCUCUAAACUUA
modifications: listed as RNA, chemistry not given here
B2: in series [2] (48 hours after transfection, T cell leukemic cells, 500 pico-mole to 1×10^7 cells, compared to non-specific (N.S) siRNA-treated cells), the Silencing efficiency result was “about 90%”.

(Values after patent publication US10765631B2, “Liposomes for modulating Wiskott-Aldrich syndrome protein” (BAR-ILAN UNIVERSITY, priority 2013, dated 2020).)
